Patent US20170051149A1, “AZOARYLS AS REVERSIBLY MODULATABLE TUBULIN INHIBITORS” (ECOLE NORMALE SUPERIEURE DE LYON, priority 2014, published 2017)

Legend:
[1] = photoisomerisation: photostationary state, calculated φ(λ) and E(λ), reversible cycling; assay type: physicochemical
Experimental: In a simple analysis of the PSS(λ) and E(λ), it was approximated that ΦEZ and ΦZE (the quantum efficiencies of the photoisomerisations trans->cis and cis->trans, respectively) are equal and independent of wavelength, and also that the kinetics of spontaneous reversion could be ignored (eg. high-intensity light source). A function φ(λ) was then calculated as per: […]
If ΦEZ and ΦZE are equal and independent of wavelength, φ(λ) gives the true PSS(λ). The wavelength independence of ΦEZ and ΦZE may be an acceptable approximation in regions of relatively strong absorption within the visible spectrum. Their equality may also be an acceptable assumption: since if ΦEZ and ΦZE are unequal but only depend weakly on wavelength in regions of relatively strong absorption, then φ(λ) is a transform of the true PSS(λ); this transform preserves the features of PSS(λ) which were most desired for evaluation in this study as long as ΦEZ and ΦZE are not too different (eg less than a factor of ten difference). Indeed, the calculated φ(λ) were later confirmed by in cellulo experiments to give reliable indications of favourable wavelengths for bulk trans->cis and bulk cis->trans photoisomerisation, which is the benchmark for a suitable analysis of the PSS(λ). The advantages of calculating φ(λ) rather than exhaustively measuring the PSS(λ) experimentally are that (a) the throughput is much faster, (b) the true PSS(λ) may be difficult to achieve at weakly-absorbing wavelengths or with fast-relaxing compounds, (c) the true PSS(λ) may be difficult to measure accurately at wavelengths where one isomer strongly dominates the sample even if both are relatively strongly absorbing, and (d) the variation of PSS(λ) with changes in the local biological microenvironment (polarity, pH etc) may anyway be larger than the error incurred by the assumption φ(λ)═PSS(λ).
Also following the assumption that ΦEZ and ΦZE are equal and independent of wavelength, a photoisomerisation efficiency E(λ) was calculated as per:
E(λ)=[εE(λ)+εZ(λ)]/[εE(390)+εZ(390)]
Larger values of E(λ) therefore denote higher efficiency photoisomerisation (less photon flux is required to approach the PSS(λ)). E(λ) was parametrised to the absorption coefficients at 390 nm, since typically that wavelength gave satisfactorily strong absorption and efficient photoisomerisation. It should be noted that E(λ) are not intercomparable between different compounds. This reflects the realistic scenario that the ΦEZ (or the ΦZE) of two arbitrarily chosen compounds may differ by a significant amount, even if the approximation that ΦEZ and ΦZE are equal and independent of wavelength applies independently to each compound.
A(λstrong) was measured over time in the UV-Vis cuvette in non-degassed PBS left open to the atmosphere, […], at 37° C., while the monochromator was used to apply λirrad alternating between two values λ1 and λ2, chosen to induce net trans->cis and net cis->trans isomerisation respectively. Typical results are presented for compound I.1 (FIG. 3). The absorbance of I.1 (18 μM) was measured at λstrong=378 nm, while the irradiating wavelength was held alternately at λ1=388 nm (50 s; bulk trans->cis) then λ2=508 nm (180 s, bulk cis->trans). Higher absorbance corresponds to a greater amount of trans isomer: an absorbance of 0.27 here corresponds to an approximately 5:1 ratio of trans:cis isomer in the sample, and an absorbance of 0.12 here corresponds to an approximately 1:2 ratio of trans:cis isomer in the sample. […] Typically, compounds of the invention could be bulk-photoisomerised hundreds of times over a timescale of hours (50 representative cycles are shown in FIG. 3 for I.1), such that the majority species in a sample was photocontrollably alternated between the trans-isomer and the cis-isomer. […]

[2] = thermal reversion halflife of spontaneous cis->trans isomerisation; assay type: physicochemical

Compound	% trans ([1]; irradiation at 554 nm, 33 μM, PBS 20% MeCN, 37° C.) [%]	% cis before photorelaxation ([1]; state before 550 nm irradiation) [%]	% trans after photorelaxation ([1]; very low intensity light of 550 nm) [%]	τ, reversion time ([2]; PBS pH = 7.4, 20% MeCN) [min]	E(388)/E(508) [1]	E(λ) ([1]; 390 nm)	% cis after photoisomerisation from all-trans ([1]; 390 nm light)	E(λ) ([1]; 410 nm)	% cis after photoisomerisation from all-trans ([1]; 450 nm light)	E(λ) ([1]; 475 nm)	E(λ) ([1]; 490 nm)	E(λ) ([1]; 505 nm)	E(λ) ([1]; 525 nm)	φ(490) ([1]; calculated from εE and εZ)	φ(505) ([1]; calculated from εE and εZ)	% cis after subsequent irradiation ([1]; subsequent 505 nm light)	τ, reversion time ([2]; PBS pH = 6, 20% MeCN) [min]
CCN(CC)c1ccc2c(-c3ccccc3C(=O)N3CCN(CCCOc4c(N=Nc5cc(OC)c(OC)c(OC)c5)ccc(OC)c4C)CC3)c3ccc(=[N+](CC)CC)cc-3oc2c1.CCN(CC)c1ccc2c(-c3ccccc3C(=O)N3CCN(CCCOc4c(N=Nc5cc(OC)c(OC)c(OC)c5)ccc(OC)c4C)CC3)c3ccc(=[N+](CC)CC)cc-3oc2c1.O=C[O-].O=C[O-] [I.25, N-(6-(diethylamino)-9-(2-(4-(3-(3-methoxy-2-methyl-6-((3,4,5-trimethoxyphenyl)diazenyl)phenoxy)propyl)piperazine-1-carbonyl)phenyl)-3H-xanthen-3-ylidene)-N-ethylethanaminium bis(formate) salt]	100	> 70	> 99	16.2													
COc1ccc(N=Nc2cc(OC)c(OC)c(OC)c2)cc1O [I.1, 2-methoxy-5-((3,4,5-trimethoxyphenyl)diazenyl)phenol]				6.2	0.04	1.00	approx. 90%	0.59	approx. 50%	0.14	0.08	0.04	0.02	0.30	0.23	approx. 20%	8.4
